Laboratory results taken from PubChem BioAssay AID248 (DTP/NCI, 2004).
Values joined by “and” are separate entries in the source; they are usually repeats but may differ in a detail not shown here. Equal entries are not always repeated. Inconclusive results and toxic doses are left out. Cut-off read from the data, not from the text of the source: active = T/C of 150% or more; inactive = T/C below 125%.

System: L1210 leukemia ip in BDF1 mice, survival T/C
Experiment: NCI In Vivo Anticancer Drug Screen. Data for tumor model L1210 Leukemia (intraperitoneal) in B6D2F1 (BDF1) mice
Conditions: endpoint: mean survival time, higher = longer survival
Method in brief: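 Survival endpoint. Drug-treated group vs vehicle group, expressed as T divided by C. Tumor passaged by transplantation.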

[1] = dose: 100.0 mg/kg/injection, schedule: Q04DX003 (ip), vehicle: Klucel (hydroxypropylcellulose) (HPC)
[2] = dose: 200.0 mg/kg/injection, schedule: Q04DX003 (ip), vehicle: Klucel (hydroxypropylcellulose) (HPC)
[3] = dose: 400.0 mg/kg/injection, schedule: Q04DX003 (ip), vehicle: Klucel (hydroxypropylcellulose) (HPC)
[4] = dose: 50.0 mg/kg/injection, schedule: Q04DX002 (ip), vehicle: Klucel (hydroxypropylcellulose) (HPC)
[5] = dose: 100.0 mg/kg/injection, schedule: Q04DX002 (ip), vehicle: Klucel (hydroxypropylcellulose) (HPC)
[6] = dose: 200.0 mg/kg/injection, schedule: Q04DX002 (ip), vehicle: Klucel (hydroxypropylcellulose) (HPC)
[7] = dose: 100.0 mg/kg/injection, schedule: Q01DX001 (ip), vehicle: saline
[8] = dose: 100.0 mg/kg/injection, schedule: Q04DX003 (ip), vehicle: saline
[9] = dose: 200.0 mg/kg/injection, schedule: Q01DX001 (ip), vehicle: saline
[10] = dose: 200.0 mg/kg/injection, schedule: Q04DX003 (ip), vehicle: saline
[11] = dose: 400.0 mg/kg/injection, schedule: Q04DX003 (ip), vehicle: saline
[12] = dose: 100.0 mg/kg/injection, schedule: Q04DX002 (ip), vehicle: saline with Tween-80
[13] = dose: 200.0 mg/kg/injection, schedule: Q04DX002 (ip), vehicle: saline with Tween-80
[14] = dose: 400.0 mg/kg/injection, schedule: Q04DX002 (ip), vehicle: Klucel (hydroxypropylcellulose) (HPC)
[15] = dose: 100.0 mg/kg/injection, schedule: Q04DX003 (ip), vehicle: saline with Tween-80
[16] = dose: 200.0 mg/kg/injection, schedule: Q04DX003 (ip), vehicle: saline with Tween-80
[17] = dose: 50.0 mg/kg/injection, schedule: Q04DX003 (ip), vehicle: Klucel (hydroxypropylcellulose) (HPC)
[18] = dose: 100.0 mg/kg/injection, schedule: Q01DX009 (ip), vehicle: Klucel (hydroxypropylcellulose) (HPC)
[19] = dose: 200.0 mg/kg/injection, schedule: Q01DX009 (ip), vehicle: Klucel (hydroxypropylcellulose) (HPC)
[20] = dose: 400.0 mg/kg/injection, schedule: Q01DX009 (ip), vehicle: Klucel (hydroxypropylcellulose) (HPC)
[21] = dose: 25.0 mg/kg/injection, schedule: Q01DX009 (ip), vehicle: Klucel (hydroxypropylcellulose) (HPC)
[22] = dose: 50.0 mg/kg/injection, schedule: Q01DX009 (ip), vehicle: Klucel (hydroxypropylcellulose) (HPC)
[23] = dose: 400.0 mg/kg/injection, schedule: Q01DX001 (ip), vehicle: saline
[24] = dose: 75.0 mg/kg/injection, schedule: Q01DX001 (ip), vehicle: saline
[25] = dose: 150.0 mg/kg/injection, schedule: Q01DX001 (ip), vehicle: saline
[26] = dose: 400.0 mg/kg/injection, schedule: Q04DX003 (ip), vehicle: saline with Tween-80

Measured: T/C

COC(=O)c1ccc(C(F)(F)F)cc1O
inactive: [1] 97 % of control | [2] 100 % of control | [3] 108 % of control

COc1cc(=O)oc(/C=C/C=C/C=C/C(C)=C\C2(C)OC(C)C(C)(O)C2O)c1C (stereo unspecified)
inactive: dose: 12.5 mg/kg/injection, schedule: Q01DX009 (ip), vehicle: other 93 % of control | dose: 25.0 mg/kg/injection, schedule: Q01DX009 (ip), vehicle: other 100 % of control | dose: 50.0 mg/kg/injection, schedule: Q01DX009 (ip), vehicle: other 93 % of control

NC(=O)C(Cl)CCl (stereo unspecified)
inactive: [4] 104 % of control | [5] 101 % of control | [6] 104 % of control

Cc1ccc(S(=O)(=O)NC(CCC(=O)O)C(=O)O)cc1 (stereo unspecified)
inactive: [7] 91 % of control | dose: 100.0 mg/kg/injection, schedule: Q01DX009 (ip), vehicle: saline 93 % of control | [8] 108 % of control | [9] 102 % of control | dose: 200.0 mg/kg/injection, schedule: Q01DX009 (ip), vehicle: saline 100 % of control | [10] 103 % of control | dose: 400.0 mg/kg/injection, schedule: Q01DX009 (ip), vehicle: saline 88 % of control | [11] 106 % of control

Fc1c(F)c(-c2c(F)c(F)c(S)c(F)c2F)c(F)c(F)c1S
inactive: [12] 88 % of control | [13] 98 % of control

COc1ccc(-n2cccc2/C=N\O)cc1OC
inactive: [5] 89 % of control | [6] 100 % of control | [14] 96 % of control

CC1(C)C=Cc2ccccc21
inactive: [15] 104 % of control | [16] 96 % of control

CCCCn1c(Cl)c(C(=O)O)c2ccccc21
inactive: [17] 94 % of control | [1] 91 % of control | [2] 90 % of control

N#CCCN1c2ccccc2Sc2ccc(Cl)cc21
inactive: [18] 96 % of control | [19] 101 % of control | [20] 98 % of control

CCCCP(=[Se])(CCCC)CCCC
inactive: dose: 0.78 mg/kg/injection, schedule: Q01DX009 (ip), vehicle: Klucel (hydroxypropylcellulose) (HPC) 93 % of control | dose: 1.56 mg/kg/injection, schedule: Q01DX009 (ip), vehicle: Klucel (hydroxypropylcellulose) (HPC) 97 % of control | dose: 3.12 mg/kg/injection, schedule: Q01DX009 (ip), vehicle: Klucel (hydroxypropylcellulose) (HPC) 112 % of control | dose: 6.25 mg/kg/injection, schedule: Q01DX009 (ip), vehicle: Klucel (hydroxypropylcellulose) (HPC) 104 % of control

Cc1cc(=O)[nH]c(N/N=C/c2ccccc2O)n1
inactive: [21] 93 % of control | [22] 94 % of control | [7] 98 % of control | [18] 93 % of control | [1] 92 % of control | dose: 125.0 mg/kg/injection, schedule: Q01DX Z (ip), vehicle: saline 97 % of control | [9] 96 % of control | [19] 95 % of control and 96 % of control | [2] 94 % of control | dose: 250.0 mg/kg/injection, schedule: Q01DX Z (ip), vehicle: saline 91 % of control | [23] 96 % of control | [3] 94 % of control | dose: 500.0 mg/kg/injection, schedule: Q01DX Z (ip), vehicle: saline 91 % of control | dose: 1000.0 mg/kg/injection, schedule: Q01DX Z (ip), vehicle: saline 91 % of control

Nc1cc(Cl)ccc1O
inactive: [7] 98 % of control | [9] 91 % of control

O=C1c2ccc(Br)cc2-c2cc(Br)c([N+](=O)[O-])cc21
inactive: dose: 100.0 mg/kg/injection, schedule: Q01DX001 (ip), vehicle: carboxymethylcellulose (CMC) 98 % of control | dose: 200.0 mg/kg/injection, schedule: Q01DX001 (ip), vehicle: carboxymethylcellulose (CMC) 98 % of control | dose: 400.0 mg/kg/injection, schedule: Q01DX001 (ip), vehicle: carboxymethylcellulose (CMC) 113 % of control

Nc1nc2c(ncn2-c2cccc(Cl)c2)c(=O)[nH]1
inactive: [15] 95 % of control | [16] 91 % of control

CC(C)OP(=O)(OC=C(Cl)Cl)OC(C)C
inactive: [24] 93 % of control | [25] 91 % of control

COc1cc(C)c2c(c1OC)C(=O)CC2
inactive: [7] 94 % of control | [9] 105 % of control | [23] 88 % of control

COc1ccc(/C=C2\CSC(=O)NC2=O)cc1OC
inactive: [7] 104 % of control | [9] 106 % of control | [23] 106 % of control

COC(=O)c1ccccc1N(C)C(=O)c1cc(OC)c(OC)c(OC)c1
inactive: [12] 108 % of control | [13] 94 % of control | dose: 400.0 mg/kg/injection, schedule: Q04DX002 (ip), vehicle: saline with Tween-80 91 % of control

Cc1[nH]c(=S)[nH]c(=O)c1CC(O)c1ccccc1 (stereo unspecified)
inactive: [1] 92 % of control | [8] 92 % of control | [10] 94 % of control | [3] 87 % of control | [11] 89 % of control

CC(C)c1ccc(C(=O)C2CC2)cc1
inactive: [21] 93 % of control | [22] 101 % of control | [18] 93 % of control and 91 % of control | [1] 96 % of control | [2] 96 % of control | [3] 94 % of control

O=C1NC(=O)C2(CCCc3ccccc32)N1 (stereo unspecified)
inactive: dose: 25.0 mg/kg/injection, schedule: Q04DX002 (ip), vehicle: Klucel (hydroxypropylcellulose) (HPC) 110 % of control | [4] 104 % of control | [5] 100 % of control

CCSC1C(O)OC(CO)C(O)C1O (stereo unspecified)
inactive: [7] 95 % of control | [9] 106 % of control | [23] 104 % of control

CCC(C)C(CN)(CCCN1CCCC1)c1cccc2ccccc12 (stereo unspecified)
inactive: [15] 92 % of control | [16] 89 % of control | [26] 101 % of control

Cc1cc(OC(=O)Nc2ccccc2C)ccc1Cl
inactive: [5] 111 % of control | [6] 103 % of control | [14] 118 % of control

NC(=S)N/N=C/c1ccc(OC(=O)COc2ccccc2Cl)cn1
inactive: [15] 124 % of control | [26] 93 % of control

O=C(C[n+]1ccccc1)c1ccc(S(=O)(=O)c2ccccc2)cc1
inactive: dose: 12.5 mg/kg/injection, schedule: Q04DX003 (ip), vehicle: Klucel (hydroxypropylcellulose) (HPC) 95 % of control | dose: 25.0 mg/kg/injection, schedule: Q04DX003 (ip), vehicle: Klucel (hydroxypropylcellulose) (HPC) 93 % of control | [17] 89 % of control | [1] 94 % of control

O=S1(=O)CC(c2ccc(Cl)cc2)Nc2ccccc21 (stereo unspecified)
inactive: dose: 100.0 mg/kg/injection, schedule: Q01DX001 (ip), vehicle: Klucel (hydroxypropylcellulose) (HPC) 87 % of control | [18] 90 % of control | [1] 103 % of control | dose: 200.0 mg/kg/injection, schedule: Q01DX001 (ip), vehicle: Klucel (hydroxypropylcellulose) (HPC) 93 % of control | [19] 90 % of control | [2] 100 % of control | dose: 400.0 mg/kg/injection, schedule: Q01DX001 (ip), vehicle: Klucel (hydroxypropylcellulose) (HPC) 93 % of control | [20] 93 % of control | [3] 92 % of control

CCCCc1c(O)nc(NCCCC(N)C(=O)O)[nH]c1=O (stereo unspecified)
inactive: [24] 93 % of control | [25] 95 % of control | dose: 300.0 mg/kg/injection, schedule: Q01DX001 (ip), vehicle: saline 96 % of control

CC(=O)OC1C(=O)C(C)(C)CN(C(C)(C)C)CC1(C)C (stereo unspecified)
inactive: dose: 100.0 mg/kg/injection, schedule: Q01DX001 (ip), vehicle: saline sonified 102 % of control | dose: 200.0 mg/kg/injection, schedule: Q01DX001 (ip), vehicle: saline sonified 91 % of control | dose: 400.0 mg/kg/injection, schedule: Q01DX001 (ip), vehicle: saline sonified 90 % of control

O=C(c1ccccc1)C1(c2ccccc2)SC1(C(=O)c1ccccc1)c1ccccc1 (stereo unspecified)
inactive: [15] 92 % of control | [16] 91 % of control | [26] 87 % of control

CC(=O)ONC(NOC(C)=O)N[N+](=O)[O-]
inactive: [7] 103 % of control | [9] 98 % of control | [23] 102 % of control
